Reference: publication PMC6685790 (Nature structural & molecular biology, 2008)
Positions count from the first letter of the chain named.

What was measured:
Format in all cases: cell-based
[1] = molecular target: T1, GlyR α1^L134A, E157A (Homo sapiens, UniProt P23415, E185A/L162A); assay: Whole-cell recording of substituted GlyR in HEK cells
T1 sequence (P23415 29-457 L162A/E185A): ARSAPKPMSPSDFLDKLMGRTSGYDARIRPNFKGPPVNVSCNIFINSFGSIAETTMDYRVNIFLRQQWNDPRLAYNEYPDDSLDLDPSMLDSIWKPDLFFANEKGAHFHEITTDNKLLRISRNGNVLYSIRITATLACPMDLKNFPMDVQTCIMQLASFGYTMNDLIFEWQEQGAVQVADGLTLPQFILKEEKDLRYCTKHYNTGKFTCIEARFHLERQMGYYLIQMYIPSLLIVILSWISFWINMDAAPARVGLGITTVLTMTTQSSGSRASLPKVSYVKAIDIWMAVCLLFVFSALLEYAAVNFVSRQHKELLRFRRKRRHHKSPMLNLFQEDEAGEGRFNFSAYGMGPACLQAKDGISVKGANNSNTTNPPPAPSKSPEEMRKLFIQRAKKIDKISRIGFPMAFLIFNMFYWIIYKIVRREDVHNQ

[2] = molecular target: GlyR α1 F108Y (Homo sapiens, UniProt P23415, F136Y); assay: as above; conditions: same cell
Sequence of GlyR α1 F108Y (P23415 29-457 F136Y): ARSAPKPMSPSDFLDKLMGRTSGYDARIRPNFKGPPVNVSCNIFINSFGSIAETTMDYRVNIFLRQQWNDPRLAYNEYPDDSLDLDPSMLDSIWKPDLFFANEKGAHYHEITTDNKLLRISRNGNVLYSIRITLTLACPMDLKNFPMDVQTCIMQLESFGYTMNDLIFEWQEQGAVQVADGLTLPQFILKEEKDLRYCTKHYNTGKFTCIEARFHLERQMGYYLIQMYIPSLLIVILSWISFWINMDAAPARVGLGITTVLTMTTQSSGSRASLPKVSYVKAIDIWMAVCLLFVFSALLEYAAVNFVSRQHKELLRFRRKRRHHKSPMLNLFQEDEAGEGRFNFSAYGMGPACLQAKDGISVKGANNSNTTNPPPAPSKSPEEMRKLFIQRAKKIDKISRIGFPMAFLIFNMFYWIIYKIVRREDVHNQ

[3] = molecular target: GlyR α1^L134A, D84A (Homo sapiens, UniProt P23415, D112A/L162A); assay: as above
Sequence of GlyR α1^L134A, D84A (P23415 29-457 D112A/L162A): as the sequence (P23415 29-457 F136Y) above, with D84A, Y108F, L134A counted along it

[4] = molecular target: GlyR α1 F99L (Homo sapiens, UniProt P23415, F127L); assay: as above; conditions: same cell
Sequence of GlyR α1 F99L (P23415 29-457 F127L): as the sequence (P23415 29-457 F136Y) above, with F99L, Y108F counted along it

[5] = molecular target: T2, GlyR α1^F108A (Homo sapiens, UniProt P23415, F136A); conditions: α1^F108A
T2 sequence (P23415 29-457 F136A): T1 sequence (P23415 29-457 L162A/E185A) with F108A, A134L, A157E

[6] = molecular target: GlyR α1^F100Y (Homo sapiens, UniProt P23415, F128Y); assay: Whole-cell recording of substituted GlyR in HEK cells; conditions: same cell
Sequence of GlyR α1^F100Y (P23415 29-457 F128Y): as the sequence (P23415 29-457 F136Y) above, with F100Y, Y108F counted along it

[7] = molecular target: T3, GlyR α1^L64A (Homo sapiens, UniProt P23415, L92A); assay: as above
T3 sequence (P23415 29-457 L92A): T1 sequence (P23415 29-457 L162A/E185A) with L64A, A134L, A157E

[8] = molecular target: GlyR α1^L134A, D97A (Homo sapiens, UniProt P23415, D125A/L162A); assay: as above
Sequence of GlyR α1^L134A, D97A (P23415 29-457 D125A/L162A): as the sequence (P23415 29-457 F136Y) above, with D97A, Y108F, L134A counted along it

[9] = molecular target: GlyR α1^T112A (Homo sapiens, UniProt P23415, T140A)
Sequence of GlyR α1^T112A (P23415 29-457 T140A): as the sequence (P23415 29-457 F136Y) above, with Y108F, T112A counted along it

[10] = molecular target: GlyR α1^T113G (Homo sapiens, UniProt P23415, T141G); assay: Whole-cell recording of substituted GlyR in HEK cells; conditions: α1^T113G vs WT
Sequence of GlyR α1^T113G (P23415 29-457 T141G): as the sequence (P23415 29-457 F136Y) above, with Y108F, T113G counted along it

[11] = molecular target: T4, GlyR α1 WT (Homo sapiens, UniProt P23415); assay: Cell-attached single-channel recording of wild-type GlyR α1 in HEK 293 cells
T4 sequence (P23415 29-457): T1 sequence (P23415 29-457 L162A/E185A) with A134L, A157E

[12] = read-out: Zn^2+ Activation EC50, direct activation without glycine
[13] = read-out: Zn^2+ Inhibition IC50, modulation of EC50 glycine currents
[14] = maximal Zn^2+ response as percentage of maximal glycine response in same cell

SMILES: [Zn+2] [Zn^2+]
- Reduction in sensitivity to Zn^2+ activation ([1]; α1^L134A, E157A vs α1^L134A): 3 fold
- Maximal Zn^2+ (1 mM)-activated current normalised to glycine Imax (10 mM) [2]: < 2 % Gly Imax
- Zn^2+ activation (normalised to Gly Imax) ([3]; D84A): 5 ± 1%
- Increase of Zn^2+ activation EC50 relative to α1^L134A ([3]; D84A vs α1^L134A): 120 fold
- Maximal Zn^2+ (1 mM)-activated current normalised to glycine Imax (10 mM) [4]: < 2 % Gly Imax
- EC50 [5, 12]: 2.3 ± 0.6 µM
- IC50 [5, 13]: > 1000 µM
- Zn^2+ Activation nH ([5]; Hill slope): 0.7 ± 0.1
- Zn^2+ Activation Relative efficacy (% Gly Imax) [5, 14]: 25 ± 6 % Gly Imax
- Maximal Zn^2+ (1 mM)-activated current normalised to glycine Imax (10 mM) [6]: < 2 % Gly Imax
- Zn^2+ Activation nH ([7]; Hill slope): 1.1 ± 0.4
- Zn^2+ Activation Relative efficacy (% Gly Imax) [7, 14]: 10 ± 3 % Gly Imax
- EC50 [7, 12]: 1.5 ± 1.3 µM
- IC50 [7, 13]: 70 ± 9 µM
- Zn^2+ activation [8]: no detectable activation
- Zn^2+ activation [9]: highly-sensitive and efficacious ZAG

SMILES: NCC(=O)O [Glycine, glycine]
- Reduction in sensitivity to glycine ([1]; α1^L134A with extra mutation E157A vs α1^L134A): 50 fold
- Threshold concentration for glycine ([1]; α1^L134A, E157A): > 100 µM
- Increase in glycine sensitivity compared to WT [10]: 3 fold
- Glycine Imax [5]: 4.5 ± 0.5 nA
- Glycine nH ([5]; Hill slope): 2.3 ± 0.1
- Glycine Imax [7]: 5.6 ± 0.8 nA
- Glycine nH ([7]; Hill slope): 2 ± 0.6
- Burst durations Area, component 1 ([11]; α1 WT +30 μM Gly): 28 ± 7%
- Burst durations Area, component 2 ([11]; α1 WT +30 μM Gly): 22 ± 4%
- Burst durations Area, component 3 ([11]; α1 WT +30 μM Gly): 35 ± 5%
- Burst durations Area, component 4 ([11]; α1 WT +30 μM Gly): 19 ± 7%
- Burst durations τB, component 1 ([11]; α1 WT +30 μM Gly): 0.3 ± 0.06 ms
- Burst durations τB, component 2 ([11]; α1 WT +30 μM Gly): 1.4 ± 0.6 ms
- Burst durations τB, component 3 ([11]; α1 WT +30 μM Gly): 6.9 ± 2.2 ms
- Burst durations τB, component 4 ([11]; α1 WT +30 μM Gly): 63.4 ± 14.8 ms
- Closed times Area, component 1 ([11]; α1 WT +30 μM Gly): 44 ± 16%
- Closed times Area, component 2 ([11]; α1 WT +30 μM Gly): 35 ± 15%
- Closed times Area, component 3 ([11]; α1 WT +30 μM Gly): 8 ± 1%
- Closed times Area, component 4 ([11]; α1 WT +30 μM Gly): 10 ± 2%
- Closed times Area, component 5 ([11]; α1 WT +30 μM Gly): 4 ± 1%
- Closed times τC, component 1 ([11]; α1 WT +30 μM Gly): 0.22 ± 0.03 ms
- Closed times τC, component 2 ([11]; α1 WT +30 μM Gly): 0.90 ± 0.24 ms
- Closed times τC, component 3 ([11]; α1 WT +30 μM Gly): 4.3 ± 1.6 ms
- Closed times τC, component 4 ([11]; α1 WT +30 μM Gly): 109 ± 6.2 ms
- Closed times τC, component 5 ([11]; α1 WT +30 μM Gly): 2200 ± 1000 ms
- Open times Area, component 1 ([11]; α1 WT +30 μM Gly): 36 ± 11%
- Open times Area, component 2 ([11]; α1 WT +30 μM Gly): 39 ± 3%
- Open times Area, component 3 ([11]; α1 WT +30 μM Gly): 26 ± 10%
- Open times τO, component 2 ([11]; α1 WT +30 μM Gly): 1.5 ± 0.2 ms
- Open times τO, component 3 ([11]; α1 WT +30 μM Gly): 8.9 ± 2.1 ms
- Open times τO, component 1 ([11]; α1 WT +30 μM Gly, +60 mV pipette potential): 0.28 ± 0.029 ms
- Estimated single channel conductance ([11]; α1 WT activated by glycine): ~ 60 pS
- PO (open probability within clusters/bursts) ([11]; α1 WT activated by glycine): 0.9 ± 0.03
- Single channel Amplitude ([11]; α1 WT activated by glycine, +60 mV pipette potential): 4 – 5 pA
- Single channel Amplitude ([11]; α1 WT activated by glycine, +60 mV pipette potential, listed as Gly): 4.5 ± 0.7 pA
